#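 96-well plates; 48 h exposure; 5 concentrations. Endpoints by linear interpolation between flanking doses. Not reached: highest tested concentration assigned. The concentration for full growth arrest is given as TGI.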 Where a SMILES comes first, the peptide text is derived from it. The star is where a group is joined. OSu = O=C1CCC(=O)N1O*
# Experiments:
# Experiment in all cases: growth of human tumour cells (NCI), 48 h
# [1] = system: CAKI-1 renal
# [2] = system: COLO 205 colon
# [3] = system: EKVX NSCLC
# [4] = system: HCC-2998 colon
# [5] = system: HT29 colon
# [6] = system: KM12 colon
# [7] = system: MALME-3M melanoma
# [8] = system: NCI-H23 lung
# [9] = system: OVCAR-4 ovarian
# [10] = system: OVCAR-8 ovarian
# [11] = system: SF-539 CNS
# [12] = system: SK-MEL-28 melanoma
# [13] = system: SNB-19 CNS
# [14] = system: SW-620 colon
# [15] = system: TK-10 renal
# [16] = system: UACC-62 melanoma
# [17] = system: RPMI-8226 leukemia
# [18] = system: DU-145 prostate
# [19] = system: MDA-MB-231 breast
# [20] = system: MDA-N
compound,measurement,setting,value
COc1cc2c(cc1O)[C@H](C)C(c1ccc(OC)c(OC)c1)O2 (stereo partly specified),TGI,[1],15.9 µM
same,TGI,[2],49.2 µM
same,TGI,[3],> 100 µM
same,TGI,[4],> 100 µM
same,TGI,[5],34.5 µM
same,TGI,[6],> 100 µM
same,TGI,[7],22.8 µM
same,TGI,[8],28.1 µM
same,TGI,[9],26.2 µM
same,TGI,[10],35.1 µM
same,TGI,[11],38.6 µM
same,TGI,[12],23 µM
same,TGI,[13],65.3 µM
same,TGI,[14],19.4 µM
same,TGI,[15],30.1 µM
same,TGI,[16],10.1 µM
O=c1[nH]c2cc(Cl)ccc2nc1/C(=N\Nc1ccccc1)C(O)c1ccc(Cl)c(Cl)c1 (stereo unspecified),TGI,[2],> 100 µM
same,TGI,[3],> 100 µM
same,TGI,[4],> 100 µM
same,TGI,[5],> 100 µM
same,TGI,[6],> 100 µM
same,TGI,[7],> 100 µM
same,TGI,[8],> 100 µM
same,TGI,[9],> 100 µM
same,TGI,[10],> 100 µM
same,TGI,[17],> 100 µM
same,TGI,[11],> 100 µM
same,TGI,[13],> 100 µM
same,TGI,[14],> 100 µM
same,TGI,[15],> 100 µM
same,TGI,[16],> 100 µM
CC1=NN(c2nc(N)nc(COc3ccc(N)cc3)n2)C(C)(C)C1,TGI,[1],> 100 µM
same,TGI,[2],> 100 µM
same,TGI,[18],> 100 µM
same,TGI,[3],> 100 µM
same,TGI,[4],> 100 µM
same,TGI,[5],> 100 µM
same,TGI,[6],> 100 µM
same,TGI,[19],> 100 µM
same,TGI,[8],> 100 µM
same,TGI,[9],> 100 µM
same,TGI,[10],> 100 µM
same,TGI,[17],> 100 µM
same,TGI,[11],> 100 µM
same,TGI,[12],> 100 µM
same,TGI,[13],> 100 µM
same,TGI,[14],> 100 µM
same,TGI,[15],> 100 µM
same,TGI,[16],> 100 µM
COc1ccc(C2Oc3cc(OC)c(OC)cc3C2CCl)cc1OC (stereo unspecified),TGI,[1],> 100 µM
same,TGI,[2],> 100 µM
same,TGI,[3],> 100 µM
same,TGI,[4],> 100 µM
same,TGI,[6],> 100 µM
same,TGI,[7],> 100 µM
same,TGI,[9],> 100 µM
same,TGI,[10],> 100 µM
same,TGI,[17],> 100 µM
same,TGI,[11],> 100 µM
same,TGI,[12],> 100 µM
same,TGI,[13],> 100 µM
same,TGI,[14],> 100 µM
same,TGI,[15],> 100 µM
same,TGI,[16],79.5 µM
NCCCCC(NC(=O)C(N)Cc1ccc(O)cc1)C(=O)NC(CCCCN)C(=O)NC(CCCCN)C(=O)ON1C(=O)CCC1=O (stereo unspecified) (H-YKKK-OSu; configuration not given here),TGI,[2],> 100 µM
same,TGI,[3],> 100 µM
same,TGI,[4],> 100 µM
same,TGI,[5],> 100 µM
same,TGI,[6],> 100 µM
same,TGI,[7],> 100 µM
same,TGI,[19],> 100 µM
same,TGI,[20],> 100 µM
same,TGI,[8],> 100 µM
same,TGI,[10],> 100 µM
same,TGI,[17],> 100 µM
same,TGI,[12],> 100 µM
same,TGI,[13],> 100 µM
same,TGI,[14],> 100 µM
same,TGI,[15],> 100 µM
same,TGI,[16],> 100 µM
COc1cc(OCCN(C)C)c2[nH]c(C(=O)N3CC(CCl)c4ccc(N)cc43)cc2c1 (stereo unspecified),TGI,[2],0.17 µM
same,TGI,[18],1.02 µM
same,TGI,[3],1.37 µM
same,TGI,[4],0.297 µM
same,TGI,[5],0.262 µM
same,TGI,[6],0.126 µM
same,TGI,[19],9.37 µM
same,TGI,[8],0.316 µM
same,TGI,[9],1.32 µM
same,TGI,[17],0.271 µM
same,TGI,[13],2.59 µM
same,TGI,[15],1.09 µM
same,TGI,[16],0.567 µM
COC(=O)[C@]1(C)CCC[C@@]2(C)C1CC[C@@]13C=C(C(C)C)[C@@H](CC1=O)CC23 (stereo partly specified),TGI,[1],85.2 µM
same,TGI,[18],> 100 µM
same,TGI,[3],71.6 µM
same,TGI,[4],> 100 µM
same,TGI,[5],40.5 µM
same,TGI,[6],> 100 µM
same,TGI,[19],95.7 µM
same,TGI,[20],> 100 µM
same,TGI,[8],> 100 µM
same,TGI,[9],> 100 µM
same,TGI,[10],> 100 µM
same,TGI,[17],40.1 µM
same,TGI,[11],37.5 µM
same,TGI,[12],> 100 µM
same,TGI,[13],73.4 µM
same,TGI,[14],83.6 µM
same,TGI,[15],> 100 µM
same,TGI,[16],> 100 µM

# Source: PubChem BioAssay (NCI)
